The source of these data is US20230011869A1 (Hoffmann-La Roche Inc., priority 2018, published 2023).

Structures can show the parent of a compound that is named as a salt.

The first experiment has as its system Acinetobacter baumannii ATCC17961. The experiment is described as follows: Antimicrobial susceptibility testing: 90% growth inhibitory concentration (IC90) determination, Iso-Sensitest broth. The following applies: 90% growth inhibitory concentration, Acinetobacter baumannii ATCC17961, Iso-Sensitest broth, OD 600 nm over 16 h; read-out: ATCC17961 IC90. It counts as cell-based. In short, it runs like this: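 Twofold serial dilutions (e.g. 50 to 0.097 μM final) in Iso-Sensitest broth, inoculum 5×10^(5) CFU/ml, incubated at 35±2° C. OD600 read every 20 minutes over 16 h; IC90 derived from growth inhibition during logarithmic phase.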
Usually IC90 stands for the point of the concentration-response curve where the effect stands at 90%. For the compound `Cc1cc(Nc2nccn3c(-c4ccc(OCC#N)c(F)c4Cl)cnc23)ccc1C(=O)N1CCN(C(=O)[C@@H]2C[C@@H](O)CN2)CC1` [Example 251, 2-[3-chloro-2-fluoro-4-[8-[4-[4-[(2S,4R)-4-hydroxypyrrolidine-2-carbonyl]piperazine-1-carbonyl]-3-methylanilino]imidazo[1,2-a]pyrazin-3-yl]phenoxy]acetonitrile], the IC90 came out at 80 nM.
As to `COc1ccc(-c2cnc3c(Nc4ccc(C(=O)N5CCC(CN)CC5)c(C)c4)nccn23)cc1` [Example 293, [4-(aminomethyl)piperidin-1-yl]-[4-[[3-(4-methoxyphenyl)imidazo[1,2-a]pyrazin-8-yl]amino]-2-methylphenyl]methanone], the concentration for an effect of 90% (IC90) turned out to be 141 nM.

Staying with this experiment, now noted: Acinetobacter baumannii, ATCC17961, 16 h, 90% growth inhibitory concentration, Acinetobacter baumannii ATCC17961, Iso-Sensitest broth, OD 600 nm over 16 h; read-out: ATCC17961 IC90.
Take `Cc1cc(Nc2nccn3c(-c4ccc(OCC#N)c(F)c4F)cnc23)ccc1C(=O)N1CCN(C(=O)[C@@H]2C[C@@](C)(O)CN2)CC1` [Example 231, 2-[2,3-difluoro-4-[8-[4-[4-[(2S,4R)-4-hydroxy-4-methyl-pyrrolidine-2-carbonyl]piperazine-1-carbonyl]-3-methyl-anilino]imidazo[1,2-a]pyrazin-3-yl]phenoxy] acetonitrile formate]: the concentration for an effect of 90% (IC90) came to 53 nM.
In the case of `COc1ccc(-c2cnc3c(Nc4ccc(C(=O)N5CCN(C(=O)[C@H]6NC[C@H](O)[C@@H]6O)CC5)c(C)c4)nccn23)cc1F` [Example 233, ((2S,3R,4S)-3,4-dihydroxypyrrolidin-2-yl)(4-(4-((3-(3-fluoro-4-methoxyphenyl)imidazo[1,2-a]pyrazin-8-yl)amino)-2-methylbenzoyl)piperazin-1-yl)methanone hydrochloride], the 90% effect concentration (IC90) is 190 nM.
`COc1ccc(-c2cnc3c(Nc4ccc(C(=O)N5CCN(C(=O)[C@H]6NC[C@H](O)[C@@H]6O)CC5)c(C)c4)nccn23)c(F)c1F` [Example 234, (4-(4-((3-(2,3-difluoro-4-methoxyphenyl)imida-zo[1,2-a]pyrazin-8-yl)amino)-2-methylbenzoyl)piper-azin-1-yl)((2S,3R,4S)-3,4-dihydroxypyrrolidin-2-yl)methanone]: the IC90 is 133 nM.
Regarding `COc1ccc(-c2cnc3c(Nc4ccc(C(=O)N5CCN(C(=O)[C@@H]6NC[C@@H](O)[C@H]6O)CC5)c(C)c4)nccn23)c(F)c1F` [Example 235, (4-(4-((3-(2,3-difluoro-4-methoxyphenyl)imida-zo[1,2-a]pyrazin-8-yl)amino)-2-methylbenzoyl)piper-azin-1-yl)((2R,3S,4R)-3,4-dihydroxypyrrolidin-2-yl)methanone], the IC90 was 117 nM.
Consider `COc1ccc(-c2cnc3c(Nc4cc(C)c(C(=O)N5CCN(C(=O)[C@@H]6C[C@@H](O)CN6)CC5)c(F)c4)nccn23)c(F)c1F` [Example 243, (4-(4-((3-(2,3-difluoro-4-methoxyphenyl)imidazo[1,2-a]pyrazin-8-yl)amino)-2-fluoro-6-methylbenzoyl)piperazin-1-yl)((2S,4R)-4-hydroxypyrrolidin-2-yl)methanone dihydrochloride], for which the IC90 stood at 113 nM.
In the case of `COc1ccc(-c2cnc3c(Nc4cc(F)c(C(=O)N5CCN(C(=O)[C@@H]6C[C@@H](O)CN6)CC5)cc4F)nccn23)c(F)c1F` [Example 244, (4-(4-((3-(2,3-difluoro-4-methoxyphenyl)imidazo[1,2-a]pyrazin-8-yl)amino)-2,5-difluorobenzoyl)piperazin-1-yl)((2S,4R)-4-hydroxypyrrolidin-2-yl)methanone], the IC90 came out at 2730 nM.
Consider `C#CCOc1ccc(-c2cnc3c(Nc4ccc(C(=O)N5CCN(C(=O)[C@@H]6C[C@@H](O)CN6)CC5)c(C)c4)nccn23)c(F)c1F` [Example 248, [4-[[3-(2,3-difluoro-4-prop-2-ynoxy-phenyl)imidazo[1,2-a]pyrazin-8-yl]amino]-2-methyl-phenyl]-[4-[(2S,4R)-4-hydroxypyrrolidine-2-carbonyl]piperazin-1-yl]methanone], for which the IC90 stood at 74 nM.
Consider `Cc1cc(Nc2nccn3c(-c4ccc(OCC#N)c(Cl)c4F)cnc23)ccc1C(=O)N1CCN(C(=O)[C@@H]2C[C@@H](O)CN2)CC1` [Example 283, 2-[2-chloro-3-fluoro-4-[8-[4-[4-[(2S,4R)-4-hydroxypyrrolidine-2-carbonyl]piperazine-1-carbonyl]-3-methylanilino]imidazo[1,2-a]pyrazin-3-yl]phenoxy]acetonitrile], for which the IC90 stood at 51 nM.
On to `COc1ccc(-c2cnc3c(Nc4ccc(C(=O)N5CCN(C(=O)[C@@]6(O)CNCC[C@@H]6O)CC5)c(C)c4)nccn23)c(F)c1F` [Example 287, [4-[[3-(2,3-difluoro-4-methoxyphenyl)imidazo[1,2-a]pyrazin-8-yl]amino]-2-methylphenyl]-[4-[(3R,4S)-3,4-dihydroxypiperidine-3-carbonyl]piperazin-1-yl]methanone], for which the concentration for an effect of 90% (IC90) stood at 80 nM.
Regarding `COc1ccc(-c2cnc3c(Nc4ccc(C(=O)N5CCC(C(=O)NC[C@H](O)[C@@H](O)CN)CC5)c(C)c4)nccn23)c(F)c1F` [Example 294, N-[(2S,3S)-4-amino-2,3-dihydroxybutyl]-1-[4-[[3-(2,3-difluoro-4-methoxyphenyl)imidazo[1,2-a]pyrazin-8-yl]amino]-2-methylbenzoyl]piperidine-4-carboxamide], the IC90 was found to be 160 nM.
As for `COc1ccc(-c2cnc3c(Nc4ccc(C(=O)N5CCN(C(=O)[C@]6(O)C[C@@H](O)[C@@H](O)[C@H](O)C6)CC5)c(C)c4)nccn23)c(F)c1F` [Example 295, [4-[[3-(2,3-difluoro-4-methoxyphenyl)imidazo[1,2-a]pyrazin-8-yl]amino]-2-methylphenyl]-[4-[(3R,5R)-1,3,4,5-tetrahydroxycyclohexanecar-bonyl]piperazin-1-yl]methanone], the IC90 was 171 nM.
For the compound `COc1ccc(-c2cnc3c(Nc4ccc(C(=O)N5CCN(S(=O)(=O)[C@H]6CCNC6)CC5)c(C)c4)nccn23)c(F)c1F` [Example 297, [4-[[3-(2,3-difluoro-4-methoxyphenyl)imidazo[1,2-a]pyrazin-8-yl]amino]-2-methylphenyl]-[4-[(3S)-pyrrolidin-3-yl]sulfonylpiperazin-1-yl]methanone], the IC90 turned out to be 192 nM.

The experiment is the same for the next values; noted with them: Acinetobacter baumannii, ATCC17961, 16 h, read-out: ATCC17961 IC90.
For `Cc1cc(Nc2nccn3c(-c4ccc(OC(F)F)cc4)cnc23)ccc1C(=O)N1CCC(C(=O)N[C@H]2CCNC2)CC1` [Example 279, 1-[4-[[3-[4-(difluoromethoxy)phenyl]imi-dazo[1,2-a]pyrazin-8-yl]amino]-2-methylbenzoyl]-N-[(3S)-pyrrolidin-3-yl]piperidine-4-carboxamide; hydrochloride], the IC90 worked out at 1340 nM.
`COc1ccc(-c2cnc3c(Nc4ccc(C(=O)N5CCN(C(=O)[C@@H]6C[C@H](C)CN6)CC5)c(C)c4)nccn23)c(F)c1F` [Example 282, [4-[[3-(2,3-difluoro-4-methoxyphenyl)imidazo[1,2-a]pyrazin-8-yl]amino]-2-methylphenyl]-[4-[(2S,4S)-4-methylpyrrolidine-2-carbonyl]piperazin-1-yl]methanone; hydrochloride]: the IC90 amounted to 72 nM.
Regarding `COc1ccc(-c2cnc3c(Nc4ccc(C(=O)N5CCN(C(=O)[C@@H]6C[C@@H](CO)CN6)CC5)c(C)c4)nccn23)c(F)c1F` [Example 284, [4-[[3-(2,3-difluoro-4-methoxyphenyl)imidazo[1,2-a]pyrazin-8-yl]amino]-2-methylphenyl]-[4-[(2S,4R)-4-(hydroxymethyl)pyrrolidine-2-carbonyl]piperazin-1-yl]methanone; hydrochloride], the IC90 stood at 49 nM.
Turning to `COc1ccc(-c2cnc3c(Nc4ccc(C(=O)N5CCN(C(=O)[C@]6(O)CNCC[C@H]6O)CC5)c(C)c4)nccn23)c(F)c1F` [Example 288, [4-[[3-(2,3-difluoro-4-methoxyphenyl)imidazo[1,2-a]pyrazin-8-yl]amino]-2-methylphenyl]-[4-[(3S,4R)-3,4-dihydroxypiperidine-3-carbonyl]piperazin-1-yl]methanone; hydrochloride], the IC90 came out at 88 nM.
For the compound `COc1ccc(-c2cnc3c(Nc4ccc(C(=O)N5CCN(C(=O)N6CCN[C@@H]([C@@H](C)O)C6)CC5)c(C)c4)nccn23)c(F)c1F` [Example 289, [4-[[3-(2,3-difluoro-4-methoxyphenyl)imidazo[1,2-a]pyrazin-8-yl]amino]-2-methylphenyl]-[4-[(3R)-3-[(1R)-1-hydroxyethyl]piperazine-1-carbonyl]piperazin-1-yl]methanone; hydrochloride], the IC90 came to 89 nM.
As to `COc1ccc(-c2cnc3c(Nc4ccc(C(=O)N5CCN(C(=O)[C@@]6(O)CNCC[C@@H]6O)CC5)c(C)c4)nccn23)c(F)c1F` [Example 290, [4-[[3-(2,3-difluoro-4-methoxyphenyl)imidazo[1,2-a]pyrazin-8-yl]amino]-2-methylphenyl]-[4-[(3R,4S)-3,4-dihydroxypiperidine-3-carbonyl]piperazin-1-yl]methanone; hydrochloride], the IC90 worked out at 109 nM.
`COc1ccc(-c2cnc3c(Nc4ccc(C(=O)N5CCC(C(=O)N6CCN[C@@H]([C@@H](C)O)C6)CC5)c(C)c4)nccn23)c(F)c1F` [Example 292, [4-[[3-(2,3-difluoro-4-methoxyphenyl)imidazo[1,2-a]pyrazin-8-yl]amino]-2-methylphenyl]-[4-[(3R)-3-[(1R)-1-hydroxyethyl]piperazine-1-carbonyl]piperidin-1-yl]methanone; hydrochloride]: the IC90 turned out to be 123 nM.
Take `COc1ccc(-c2cnc3c(Nc4ccc(C(=O)N5CCN(C(=O)[C@@H]6C[C@](C)(O)CN6)CC5)c(C)c4)nccn23)c(F)c1F` [Example 455, [4-[[3-(2,3-difluoro-4-methoxyphenyl)imidazo[1,2-a]pyrazin-8-yl]amino]-2-methylphenyl]-[4-[(2S,4S)-4-hydroxy-4-methylpyrrolidine-2-carbonyl]piperazin-1-yl]methanone; formic acid]: the concentration for an effect of 90% (IC90) came to 66 nM.
